Substitutions are numbered along the chain they refer to.
Columns and labels:
Assay type in all cases: binding
Settings in all cases: 5 mM L-cysteine, 20 mM phosphate pH 7.5, 500 mM NaCl, 10% glycerol, anaerobic, >430 nm light, on ice; native bound cofactor
[1] = target: T1, At64 ((6-4) photolyase from Arabidopsis thaliana) (Arabidopsis thaliana, UniProt O48652, H382S); assay: steady-state FAD photoreduction by UV-Vis; transient absorption
T1 construct: gene UVR3; pET-28a(+) NdeI/XhoI, His-tagged, expressed in E. coli C41(DE3)/pLysS; TALON and heparin purification
T1 sequence (O48652 20-556 H382S): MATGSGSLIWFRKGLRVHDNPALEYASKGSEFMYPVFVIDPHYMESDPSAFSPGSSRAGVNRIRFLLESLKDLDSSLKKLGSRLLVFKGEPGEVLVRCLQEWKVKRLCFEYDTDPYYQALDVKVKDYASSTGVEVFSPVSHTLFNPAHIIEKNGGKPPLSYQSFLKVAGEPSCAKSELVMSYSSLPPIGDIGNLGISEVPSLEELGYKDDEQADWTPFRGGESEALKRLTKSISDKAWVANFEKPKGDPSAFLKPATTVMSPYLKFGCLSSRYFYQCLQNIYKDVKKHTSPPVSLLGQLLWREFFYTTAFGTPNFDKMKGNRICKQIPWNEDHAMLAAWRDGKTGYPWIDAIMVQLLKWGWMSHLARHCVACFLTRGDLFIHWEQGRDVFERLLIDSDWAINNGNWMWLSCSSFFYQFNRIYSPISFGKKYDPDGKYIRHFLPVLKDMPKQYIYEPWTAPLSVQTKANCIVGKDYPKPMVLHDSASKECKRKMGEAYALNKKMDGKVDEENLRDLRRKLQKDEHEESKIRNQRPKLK

[2] = target: T2, At64 ((6-4) photolyase from Arabidopsis thaliana) (Arabidopsis thaliana, UniProt O48652, H382D); assay: steady-state FAD photoreduction by UV-Vis
T2 construct: gene UVR3; pET-28a(+) NdeI/XhoI, His-tagged, expressed in E. coli C41(DE3)/pLysS; TALON and heparin purification
T2 sequence (O48652 20-556 H382D): T1 sequence (O48652 20-556 H382S) with S363D

[3] = target: T3, At64 ((6-4) photolyase from Arabidopsis thaliana) (Arabidopsis thaliana, UniProt O48652, H382N); assay: steady-state FAD photoreduction by UV-Vis
T3 construct: gene UVR3; pET-28a(+) NdeI/XhoI, His-tagged, expressed in E. coli C41(DE3)/pLysS; TALON and heparin purification
T3 sequence (O48652 20-556 H382N): T1 sequence (O48652 20-556 H382S) with S363N

[4] = target: T4, At64 ((6-4) photolyase from Arabidopsis thaliana) (Arabidopsis thaliana, UniProt O48652, H382V); assay: steady-state FAD photoreduction by UV-Vis
T4 construct: gene UVR3; pET-28a(+) NdeI/XhoI, His-tagged, expressed in E. coli C41(DE3)/pLysS; TALON and heparin purification
T4 sequence (O48652 20-556 H382V): T1 sequence (O48652 20-556 H382S) with S363V

[5] = target: T5, At64 ((6-4) photolyase from Arabidopsis thaliana) (Arabidopsis thaliana, UniProt O48652, H382Y); assay: steady-state FAD photoreduction by UV-Vis
T5 construct: gene UVR3; pET-28a(+) NdeI/XhoI, His-tagged, expressed in E. coli C41(DE3)/pLysS; TALON and heparin purification
T5 sequence (O48652 20-556 H382Y): T1 sequence (O48652 20-556 H382S) with S363Y

[6] = target: T6, Xl64 (Xenopus laevis (6-4) PL) (Xenopus laevis, UniProt Q9I910, W370F/S372H, form not given); assay: steady-state FAD photoreduction by UV-Vis
T6 construct: gene Xl64phr; pET28a(+), expressed in E. coli; only the W370F/S372H mutant made here
T6 sequence (Q9I910 1-526 W370F/S372H): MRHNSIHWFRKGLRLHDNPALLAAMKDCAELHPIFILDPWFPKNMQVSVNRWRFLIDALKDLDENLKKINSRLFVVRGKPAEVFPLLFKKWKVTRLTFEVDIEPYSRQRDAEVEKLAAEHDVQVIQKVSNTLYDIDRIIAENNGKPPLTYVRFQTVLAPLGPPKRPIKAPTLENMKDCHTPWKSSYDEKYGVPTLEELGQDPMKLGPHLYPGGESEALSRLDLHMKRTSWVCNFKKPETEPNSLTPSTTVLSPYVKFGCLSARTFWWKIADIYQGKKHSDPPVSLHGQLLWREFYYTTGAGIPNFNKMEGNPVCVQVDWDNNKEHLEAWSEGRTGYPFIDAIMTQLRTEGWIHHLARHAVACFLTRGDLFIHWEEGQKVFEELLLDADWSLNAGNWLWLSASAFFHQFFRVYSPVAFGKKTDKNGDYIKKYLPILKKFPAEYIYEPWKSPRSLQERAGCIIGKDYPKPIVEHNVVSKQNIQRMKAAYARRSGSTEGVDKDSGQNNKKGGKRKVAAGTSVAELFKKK

Cc1cc2nc3c(=O)[nH]c(=O)nc-3n(C[C@H](O)[C@H](O)[C@H](O)COP(=O)(O)OP(=O)(O)OC[C@H]3O[C@@H](n4cnc5c(N)ncnc54)[C@H](O)[C@@H]3O)c2cc1C [flavin adenine dinucleotide]
steady-state FAD photoreduction by UV-Vis; transient absorption [1]: FAD photoreduction in At64-H382S occurred with a half-life | steady-state FAD photoreduction by UV-Vis [2]: we successfully purified the H382D, H382N, H382V and H382Y mutants of At64 | steady-state FAD photoreduction by UV-Vis [3]: we successfully purified the H382D, H382N, H382V and H382Y mutants of At64 | steady-state FAD photoreduction by UV-Vis [4]: we successfully purified the H382D, H382N, H382V and H382Y mutants of At64 | steady-state FAD photoreduction by UV-Vis [5]: we successfully purified the H382D, H382N, H382V and H382Y mutants of At64 | steady-state FAD photoreduction by UV-Vis [6]: the W370F/S372H double mutant of Xl64 (Xl64-W370F/S372H)

From PMC8948257, “Limited solvation of an electron donating tryptophan stabilizes a photoinduced charge-separated state in plant (6–4) photolyase” (Scientific Reports, 2022)
